What was measured:
14-3-3/Pin1 complex = test system: 14-3-3/Pin1 complex; set-up: method as in PMID 34047554; details: 100 μM compound; cited from earlier work
14-3-3ζ/ERRγ peptide = target: T1, 14-3-3ζ/ERRγ peptide (Homo sapiens, UniProt P63104); experiment: FA peptide screen, 14-3-3ζ titration to client peptide and compound: ERRγ; type: binding; details: 250 μM compound, 100 nM peptide; +1 Cys
T1 construct: made in house; host or cells: NiCo21 (DE3) E. coli
Method: (§1) Since the hub protein 14-3-3 binds to hundreds of phosphoprotein partners, selectivity of PPI stabilization is a major challenge. The interplay of chemical reactivity, and the topology and functionality of the composite binding pocket shaped by 14-3-3 and Tau potentially provide entries towards selective stabilization. […] Here, 14-3-3ζ was titrated to a constant concentration of client peptide (100 nM) and compound (250 μM) to determine the SF250μM values for the particular 14-3-3 PPI. A variety of 14-3-3 binding proteins was represented in this client panel whereby the size and hydrophobicity of the +1 amino acid were varied. […]
(§2) chromatography (HisTrap high performance cartridges, Cytiva). […] Dialyzed protein was concentrated to ∼40 mg/mL, analyzed by Q -Tof LC/MS, and aliquots were flash -frozen for storage at −80 °C. […]
(§3) 0.1% (v/v) Tween20, 0.1% (w/v) BSA). […] Measurements were performed directly after plate preparation, using a Tecan SPARK plate reader at room temperature ( λex: 485±20 nm; λem: 535±25 nm; mirror: automatic; flashes: 30; settle time: 1 ms; gain: optimal; Z -position: calculated from well). […] All data were analyzed using GraphPad Prism (10.0.1) and fitted with a four -parameter logistic model (4PL) to determine binding affinities (dissociation constant, KD). […]
(§4) Fluorescence Anisotropy – peptide screen […]

14-3-3ζ/p65 peptide = target: T2, 14-3-3ζ/p65 peptide (Homo sapiens, UniProt P63104); experiment: FA peptide screen, 14-3-3ζ titration to client peptide and compound: p65; type: binding; details: 250 μM compound, 100 nM peptide; +1 Ile
T2 construct: made in house; host or cells: NiCo21 (DE3) E. coli
Method: as §1, §2, §3, §4

T1 sequence (P63104 whole entry, other chains not shown): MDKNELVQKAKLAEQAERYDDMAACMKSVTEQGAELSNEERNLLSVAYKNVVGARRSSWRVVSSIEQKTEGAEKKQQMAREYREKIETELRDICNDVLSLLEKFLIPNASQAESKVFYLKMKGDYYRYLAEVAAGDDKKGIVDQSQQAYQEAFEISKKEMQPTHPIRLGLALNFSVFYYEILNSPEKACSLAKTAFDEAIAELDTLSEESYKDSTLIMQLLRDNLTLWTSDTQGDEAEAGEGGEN
T2 sequence (P63104 whole entry, other chains not shown): as above

| Compound | SF100μM for stabilization of the 14-3-3/Pin1 complex (14-3-3/Pin1 complex) | stabilization of 14-3-3/ERRγ peptide (in words) (14-3-3ζ/ERRγ peptide) | stabilization of 14-3-3/p65 peptide (in words) (14-3-3ζ/p65 peptide) |
| --- | --- | --- | --- |
| O=Cc1ccc(-n2ccnc2-c2ccccc2)cc1Br [Compound 1] | 10 |  |  |
| CCc1ccc(-c2nccn2-c2ccc(C=O)c(Br)c2)cc1 [Compound 18] |  | did not show significant stabilizing activity | minor off-target effects |

— paper PMC11892739, “Site-specific molecular glues for the 14-3-3/Tau pS214 protein–protein interaction via reversible covalent imine tethering” (RSC Medicinal Chemistry, 2025)
